Reference: the supplement of paper PMC11061612

Legend:
Paclitaxel = compound: CC(=O)O[C@H]1C(=O)[C@@]2(C)[C@H]([C@H](OC(=O)c3ccccc3)[C@]3(O)C[C@H](OC(=O)[C@H](O)[C@@H](NC(=O)c4ccccc4)c4ccccc4)C(C)=C1C3(C)C)[C@]1(OC(C)=O)CO[C@@H]1C[C@@H]2O [Paclitaxel]; settings: max 3 µM
How it was run: (§1)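 Viability was measured with CellTiter-Glo 2.0 luminescence after 72 hours of dosing at a final DMSO of typically 0.2%, and scaled between blank-well and DMSO-well means. Beforehand, cancer cell lines sat 24 hours at 37°C and 5% CO2 in 1536-well plates in 7.5 μl DMEM/F12 or RPMI with 10% FBS. A non-linear mixed effects model fitted two-parameter logistic curves to the dose responses. The single-agent IC50 comes from these fits.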

Doxorubicin = compound: COc1cccc2c1C(=O)c1c(O)c3c(c(O)c1C2=O)C[C@@](O)(C(=O)CO)C[C@@H]3O[C@H]1C[C@H](N)[C@H](O)[C@H](C)O1 [Doxorubicin]; settings: max 1 µM
How it was run: as §1

5-Fluorouracil = compound: O=c1[nH]cc(F)c(=O)[nH]1 [5-Fluorouracil]; settings: max 20 µM
How it was run: as §1

AZD6738 = compound: C[C@@H]1COCCN1C2=NC(=NC(=C2)C3(CC3)[S@](=N)(=O)C)C4=C5C=CNC5=NC=C4 [AZD6738]; settings: max 10 µM
How it was run: as §1

AZD0156 = compound: CN(C)CCCOc1ccc(-c2ccc3ncc4c(c3c2)n(C2CCOCC2)c(=O)n4C)cn1 [AZD0156]; settings: max 3 µM
How it was run: as §1

AZD5153 = compound: COc1nnc2ccc(N3CCC(c4ccc(OCCN5CCN(C)C(=O)[C@H]5C)cc4)CC3)nn12 [AZD5153]; settings: max 1 µM
How it was run: as §1

AZD5991 = compound: Cc1c2c(nn1C)CSCc1cc(n(C)n1)CSc1cc(c3ccccc3c1)OCCCc1c(C(=O)O)n(C)c3c-2c(Cl)ccc13 [AZD5991]; settings: max 1 µM
How it was run: as §1

Crizotinib = compound: C[C@@H](Oc1cc(-c2cnn(C3CCNCC3)c2)cnc1N)c1c(Cl)ccc(F)c1Cl [Crizotinib]; settings: max 10 µM
How it was run: as §1

Gefitinib = compound: COc1cc2ncnc(Nc3ccc(F)c(Cl)c3)c2cc1OCCCN1CCOCC1 [Gefitinib]; settings: max 10 µM
How it was run: as §1

Venetoclax = compound: CC1(C)CCC(CN2CCN(c3ccc(C(=O)NS(=O)(=O)c4ccc(NCC5CCOCC5)c([N+](=O)[O-])c4)c(Oc4cnc5[nH]ccc5c4)c3)CC2)=C(c2ccc(Cl)cc2)C1 [Venetoclax]; settings: max 1 µM
How it was run: as §1

[1] = compound: O=C(Nc1ccc2[nH]nc(-c3ccncc3)c2c1)[C@@H]1CCN(CC(=O)N2CCN(c3ccc(-c4ncccn4)cc3)CC2)C1; settings: max 5 µM
How it was run: as §1

AZD5363 = compound: C1CN(CCC1(C(=O)N[C@@H](CCO)C2=CC=C(C=C2)Cl)N)C3=NC=NC4=C3C=CN4 [AZD5363]; settings: max 10 µM
How it was run: as §1

AZD2811 = compound: CCN(CCO)CCCOc1ccc2c(Nc3cc(CC(=O)Nc4cccc(F)c4)[nH]n3)ncnc2c1 [AZD2811]; settings: max 1 µM
How it was run: as §1

Alisertib = compound: COc1cc(Nc2ncc3c(n2)-c2ccc(Cl)cc2C(c2c(F)cccc2OC)=NC3)ccc1C(=O)O [Alisertib]; settings: max 10 µM
How it was run: as §1

AZD7648 = compound: Cc1cc2ncnn2cc1Nc1ncc2c(n1)n(C1CCOCC1)c(=O)n2C [AZD7648]; settings: max 10 µM
How it was run: as §1

Prexasertib = compound: COc1cccc(OCCCN)c1-c1cc(Nc2cnc(C#N)cn2)n[nH]1 [Prexasertib]; settings: max 1 µM
How it was run: as §1

Gemcitabine = compound: Nc1ccn([C@@H]2O[C@H](CO)[C@@H](O)C2(F)F)c(=O)n1 [Gemcitabine]; settings: max 0.3 µM
How it was run: as §1

SRA737 = compound: N#Cc1cnc(Nc2cc(NC[C@H]3CNCCO3)c(C(F)(F)F)cn2)cn1 [SRA737]; settings: max 10 µM
How it was run: as §1

AZD1390 = compound: CC(C)n1c(=O)n(C)c2cnc3cc(F)c(-c4ccc(OCCCN5CCCCC5)nc4)cc3c21 [AZD1390]; settings: max 0.3 µM
How it was run: as §1

Etoposide = compound: COc1cc([C@@H]2c3cc4c(cc3[C@@H](O[C@@H]3O[C@@H]5CO[C@@H](C)O[C@H]5[C@H](O)[C@H]3O)[C@H]3COC(=O)[C@H]23)OCO4)cc(OC)c1O [Etoposide]; settings: max 10 µM
How it was run: as §1

Selumetinib = compound: Cn1cnc2c(F)c(Nc3ccc(Br)cc3Cl)c(C(=O)NOCCO)cc21 [Selumetinib]; settings: max 10 µM
How it was run: as §1

Olaparib = compound: O=C(c1cc(Cc2n[nH]c(=O)c3ccccc23)ccc1F)N1CCN(C(=O)C2CC2)CC1 [Olaparib]; settings: max 10 µM
How it was run: as §1

AZD8186 = compound: C[C@@H](Nc1cc(F)cc(F)c1)c1cc(C(=O)N(C)C)cc2c(=O)cc(N3CCOCC3)oc12 [AZD8186]; settings: max 10 µM
How it was run: as §1

SN-38 = compound: CCc1c2c(nc3ccc(O)cc13)-c1cc3c(c(=O)n1C2)COC(=O)[C@]3(O)CC [SN-38]; settings: max 0.3 µM
How it was run: as §1

Dasatinib = compound: CC1=C(C(=CC=C1)Cl)NC(=O)C2=CN=C(S2)NC3=CC(=NC(=N3)C)N4CCN(CC4)CCO [Dasatinib]; settings: max 2 µM
How it was run: as §1

MK-2206 = compound: NC1(c2ccc(-c3nc4ccn5c(=O)[nH]nc5c4cc3-c3ccccc3)cc2)CCC1 [MK-2206]; settings: max 10 µM
How it was run: as §1

Palbociclib = compound: CC(=O)c1c(C)c2cnc(Nc3ccc(N4CCNCC4)cn3)nc2n(C2CCCC2)c1=O [Palbociclib]; settings: max 10 µM
How it was run: as §1

Carboplatin = compound: C1CC(C1)(C(=O)[O-])C(=O)[O-].N.N.[Pt+2] [Carboplatin]; settings: max 10 µM
How it was run: as §1

Trametinib = compound: CC(=O)Nc1cccc(-n2c(=O)n(C3CC3)c(=O)c3c(Nc4ccc(I)cc4F)n(C)c(=O)c(C)c32)c1 [Trametinib]; settings: max 1 µM
How it was run: as §1

Savolitinib = compound: C[C@@H](c1ccc2nccn2c1)n1nnc2ncc(-c3cnn(C)c3)nc21 [Savolitinib]; settings: max 1 µM
How it was run: as §1

Lapatinib = compound: CS(=O)(=O)CCNCc1ccc(-c2ccc3ncnc(Nc4ccc(OCc5cccc(F)c5)c(Cl)c4)c3c2)o1 [Lapatinib]; settings: max 10 µM
How it was run: as §1

AZD1775 = compound: C=CCn1c(=O)c2cnc(Nc3ccc(N4CCN(C)CC4)cc3)nc2n1-c1cccc(C(C)(C)O)n1 [AZD1775]; settings: max 3 µM
How it was run: as §1

SG3199 = compound: CC1=CN2[C@@H](C1)C=NC3=CC(=C(C=C3C2=O)OC)OCCCCCOC4=C(C=C5C(=C4)N=C[C@@H]6CC(=CN6C5=O)C)OC [SG3199]; settings: max 0.001 µM
How it was run: as §1

Taselisib = compound: Cc1nc(-c2cn3c(n2)-c2ccc(-c4cnn(C(C)(C)C(N)=O)c4)cc2OCC3)n(C(C)C)n1 [Taselisib]; settings: max 10 µM
How it was run: as §1

AZD4320 = compound: CN(CC[C@H](CSC1=CC=CC=C1)NC2=C(C=C(C=C2)S(=O)(=O)NC(=O)C3=CC=C(C=C3)N4CCC(CC4)[C@H](C5=CC=CC=C5C6=CC=C(C=C6)Cl)O)S(=O)(=O)C(F)(F)F)CCO [AZD4320]; settings: max 1 µM
How it was run: as §1

Row | Cell Line | IC50, cell viability 72 h (Paclitaxel) [µM] | IC50, cell viability 72 h (Doxorubicin) [µM] | IC50, cell viability 72 h (5-Fluorouracil) [µM] | IC50, cell viability 72 h (AZD6738) [µM] | IC50, cell viability 72 h (AZD0156) [µM] | IC50, cell viability 72 h (AZD5153) [µM] | IC50, cell viability 72 h (AZD5991) [µM] | IC50, cell viability 72 h (Crizotinib) [µM] | IC50, cell viability 72 h (Gefitinib) [µM] | IC50, cell viability 72 h (Venetoclax) [µM] | IC50, cell viability 72 h [1] [µM] | IC50, cell viability 72 h (AZD5363) [µM] | IC50, cell viability 72 h (AZD2811) [µM] | IC50, cell viability 72 h (Alisertib) [µM] | IC50, cell viability 72 h (AZD7648) [µM] | IC50, cell viability 72 h (Prexasertib) [µM] | IC50, cell viability 72 h (Gemcitabine) [µM] | IC50, cell viability 72 h (SRA737) [µM] | IC50, cell viability 72 h (AZD1390) [µM] | IC50, cell viability 72 h (Etoposide) [µM] | IC50, cell viability 72 h (Selumetinib) [µM] | IC50, cell viability 72 h (Olaparib) [µM] | IC50, cell viability 72 h (AZD8186) [µM] | IC50, cell viability 72 h (SN-38) [µM] | IC50, cell viability 72 h (Dasatinib) [µM] | IC50, cell viability 72 h (MK-2206) [µM] | IC50, cell viability 72 h (Palbociclib) [µM] | IC50, cell viability 72 h (Carboplatin) [µM] | IC50, cell viability 72 h (Trametinib) [µM] | IC50, cell viability 72 h (Savolitinib) [µM] | IC50, cell viability 72 h (Lapatinib) [µM] | IC50, cell viability 72 h (AZD1775) [µM] | IC50, cell viability 72 h (SG3199) [µM] | IC50, cell viability 72 h (Taselisib) [µM] | IC50, cell viability 72 h (AZD4320) [µM]
1 | KMRC-1 (Kidney Carcinoma) | > 3 | > 1 | > 20 | > 10 | > 3 | > 1 | > 1 | > 10 | > 10 | > 1 | > 5 | > 10 | > 1 | > 10 | > 10 | 0.588 | 0.133 | > 10 | > 0.3 | > 10 | > 10 | > 10 | 3.16 | > 0.3 | 0.711 | > 10 | > 10 | > 10 | > 1 | > 1 | > 10 | > 3 | > 0.001 | > 10 | > 1
2 | MDA-MB-453 (Breast Carcinoma) | 0.509 | > 1 | > 20 | 3.96 | > 3 | 0.349 | > 1 | > 10 | > 10 | > 1 | > 5 | 8.59 | > 1 | > 10 | > 10 | 0.0429 | > 0.3 | > 10 | > 0.3 | > 10 | > 10 | > 10 | > 10 | 0.0682 | > 2 | 3.56 | > 10 | > 10 | > 1 | > 1 | > 10 | 1.51 | > 0.001 | 0.521 | > 1
3 | SK-LU-1 (Lung Adenocarcinoma) | > 3 |  | > 20 | > 10 | > 3 | > 1 | > 1 | > 10 | > 10 | > 1 | > 5 | > 10 | > 1 |  | > 10 |  | > 0.3 | > 10 | > 0.3 | > 10 | > 10 | > 10 | > 10 | 0.145 | > 2 | > 10 | > 10 | > 10 | > 1 | > 1 | > 10 | 1.15 |  | > 10 | > 1
